Values of other authors as cited in patent publication US20240115713A1, “POLYETHYLENE GLYCOL CONJUGATE DRUG, AND PREPARATION METHOD THEREFOR AND USE THEREOF” (CHONGQING UPGRA BIOTECHNOLOGY CO., LTD., priority 2020, published 2024).

Target: FA receptors
Conditions: read-out: Kd, binding affinity to the FA receptors

In the case of `Nc1nc2ncc(CNc3ccc(C(=O)N[C@@H](CCC(=O)O)C(=O)O)cc3)nc2c(=O)[nH]1` [FA, folic acid], the Kd is listed as ~0.1 nM.
